Converted amounts (≈) assume the structure as drawn. The source made the active and inactive calls. No cut-off for these calls is given here.
system: not listed separately; experiment: Growth inhibition of human breast cancer stem cells; type: functional; settings: not given

SMILES	EC50 [µM]
CC(C)(C)c1ccc(C2CC2C(=O)N/N=C/c2ccc[nH]2)cc1 (stereo not drawn)	0.79
O=C(COc1c(Cl)cc(Cl)cc1Cl)N/N=C/c1ccc[nH]1	1.16
Cc1cc(Br)ccc1OCC(=O)N/N=C/c1ccc[nH]1	3.76
O=C(COc1ccccc1Cl)N/N=C/c1ccc[nH]1	33.5
O=C(N/N=C/c1ccc[nH]1)C1CC1c1ccccc1 (stereo not drawn)	12.9
Cc1cc(Cl)ccc1OCC(=O)N/N=C/c1ccc[nH]1	2.89
O=C(COc1ccc(Cl)cc1Cl)N/N=C/c1cc2ccccc2[nH]1	125
O=C(N/N=C/c1ccc[nH]1)C1CC1c1ccc(Cl)cc1Cl (stereo not drawn)	59.1
O=C(COc1ccc2c(c1)OCO2)N/N=C/c1ccc[nH]1	36.2
CC(Oc1cc(Cl)ccc1Cl)C(=O)N/N=C/c1ccc[nH]1 (stereo not drawn)	33.4
O=C(COc1ccc(F)cc1Cl)N/N=C/c1ccc[nH]1	8.86
O=C(COc1ccc(Cl)cc1)N/N=C/c1ccc[nH]1	22.5
O=C(N/N=C/c1ccc[nH]1)C1COc2cc3ccccc3cc2O1 (stereo not drawn)	4.21
Cc1ccccc1OCC(=O)N/N=C/c1ccc[nH]1	40.7
O=C(COc1c(Cl)cccc1Cl)N/N=C/c1ccc[nH]1	126
CC(Oc1ccc(F)cc1Cl)C(=O)N/N=C/c1ccc[nH]1 (stereo not drawn)	35.4
Cc1ccc(/C=N/NC(=O)COc2ccc(Cl)cc2Cl)[nH]1	14.3
O=C(N/N=C/c1ccc[nH]1)c1cc2ccccc2o1	6.32
O=C(COc1cc(Cl)ccc1Cl)N/N=C/c1ccc[nH]1	3.39
O=C(COc1ccc(Cl)cc1Cl)N/N=C/c1ccc[nH]1	3.33
Cc1cc(C)c(OCC(=O)N/N=C/c2ccc[nH]2)c(C)c1	9.42
O=C(COc1ccc(Cl)cc1Cl)N/N=C/c1ccccc1O	79.5
O=C(CCc1ccc2c(c1)OCO2)N/N=C/c1ccc[nH]1	53.4
CC(C)(C)c1ccc2c(c1)OC(C(=O)N/N=C/c1ccc[nH]1)CO2 (stereo not drawn)	2.51
O=C(COc1ccc(Cl)cc1Br)N/N=C/c1ccc[nH]1	3.16
O=C(CSc1ccc(Cl)cc1Cl)N/N=C/c1ccc[nH]1	2.3
O=C(COc1ccc2ccccc2c1Br)N/N=C/c1ccc[nH]1	1.11

system: not listed separately; experiment: Growth inhibition of human mammary epithelial cells; type: cell-based; settings: Epithelial cell

SMILES	EC50 [µM]
CC(C)(C)c1ccc(C2CC2C(=O)N/N=C/c2ccc[nH]2)cc1 (stereo not drawn)	2.14
O=C(COc1c(Cl)cc(Cl)cc1Cl)N/N=C/c1ccc[nH]1	27.6
Cc1cc(Cl)ccc1OCC(=O)N/N=C/c1ccc[nH]1	26.7
O=C(COc1ccc(Cl)cc1Cl)N/N=C/c1cc2ccccc2[nH]1	23.5
O=C(COc1ccc2c(c1)OCO2)N/N=C/c1ccc[nH]1	21
CC(Oc1cc(Cl)ccc1Cl)C(=O)N/N=C/c1ccc[nH]1 (stereo not drawn)	97.7
O=C(COc1ccc(F)cc1Cl)N/N=C/c1ccc[nH]1	33.6
O=C(N/N=C/c1ccc[nH]1)C1COc2cc3ccccc3cc2O1 (stereo not drawn)	18.9
Cc1ccc(/C=N/NC(=O)COc2ccc(Cl)cc2Cl)[nH]1	16.9
O=C(COc1ccc(Cl)cc1Cl)N/N=C/c1ccccc1O	56.3
CC(C)(C)c1ccc2c(c1)OC(C(=O)N/N=C/c1ccc[nH]1)CO2 (stereo not drawn)	15
O=C(COc1ccc(Cl)cc1Br)N/N=C/c1ccc[nH]1	20.9
O=C(CSc1ccc(Cl)cc1Cl)N/N=C/c1ccc[nH]1	18
O=C(COc1ccc2ccccc2c1Br)N/N=C/c1ccc[nH]1	3.03

organism: Homo sapiens; experiment: Growth inhibition of human breast cancer stem cells at 20 uM; type: functional; settings: not given

SMILES	growth inhibition (GI)
O=C(COc1ccc(Cl)cc1Cl)N/N=C/c1cc[nH]n1	inactive
O=C(N/N=C/c1ccc[nH]1)C1Cc2ccccc2O1 (stereo not drawn)	inactive
C/C(=N\NC(=O)COc1ccc(Cl)cc1Cl)c1ccc[nH]1	inactive
Cc1ccccc1NCC(=O)N/N=C/c1ccc[nH]1	inactive
O=C(COc1ccc(Cl)cc1Cl)N/N=C/c1ccccc1	inactive
O=C(COc1ccc(Cl)cc1Cl)N/N=C/c1cccs1	inactive
N#Cc1ccccc1OCC(=O)N/N=C/c1ccc[nH]1	inactive
O=C(COc1ccc(Cl)cc1Cl)N/N=C/c1ccccn1	inactive
O=C(COc1ccc(Cl)cc1Cl)N/N=C/c1c[nH]cn1	inactive
O=C(COc1ccc(Cl)cc1Cl)N/N=C/c1ccco1	inactive
COc1ccccc1OCC(=O)N/N=C/c1ccc[nH]1	inactive
Cn1cccc1/C=N/NC(=O)COc1ccc(Cl)cc1Cl	inactive

system: not listed separately; experiment: Growth inhibition of human mammary epithelial cells at 20 uM; type: cell-based; settings: epithelial cell

SMILES	growth inhibition (GI)
O=C(COc1ccc(Cl)cc1Cl)N/N=C/c1cc[nH]n1	Non-toxic
O=C(N/N=C/c1ccc[nH]1)C1Cc2ccccc2O1 (stereo not drawn)	Non-toxic
Cc1cc(Br)ccc1OCC(=O)N/N=C/c1ccc[nH]1	Non-toxic
C/C(=N\NC(=O)COc1ccc(Cl)cc1Cl)c1ccc[nH]1	Non-toxic
O=C(COc1ccccc1Cl)N/N=C/c1ccc[nH]1	Non-toxic
Cc1ccccc1NCC(=O)N/N=C/c1ccc[nH]1	Non-toxic
O=C(N/N=C/c1ccc[nH]1)C1CC1c1ccccc1 (stereo not drawn)	Non-toxic
O=C(COc1ccc(Cl)cc1Cl)N/N=C/c1ccccc1	Non-toxic
O=C(N/N=C/c1ccc[nH]1)C1CC1c1ccc(Cl)cc1Cl (stereo not drawn)	Non-toxic
O=C(COc1ccc(Cl)cc1Cl)N/N=C/c1cccs1	Non-toxic
N#Cc1ccccc1OCC(=O)N/N=C/c1ccc[nH]1	Non-toxic
O=C(COc1ccc(Cl)cc1)N/N=C/c1ccc[nH]1	Non-toxic
O=C(COc1ccc(Cl)cc1Cl)N/N=C/c1ccccn1	Non-toxic
Cc1ccccc1OCC(=O)N/N=C/c1ccc[nH]1	Non-toxic
O=C(COc1c(Cl)cccc1Cl)N/N=C/c1ccc[nH]1	Non-toxic
CC(Oc1ccc(F)cc1Cl)C(=O)N/N=C/c1ccc[nH]1 (stereo not drawn)	Non-toxic
O=C(COc1ccc(Cl)cc1Cl)N/N=C/c1c[nH]cn1	Non-toxic
O=C(COc1ccc(Cl)cc1Cl)N/N=C/c1ccco1	Non-toxic
O=C(N/N=C/c1ccc[nH]1)c1cc2ccccc2o1	Non-toxic
O=C(COc1cc(Cl)ccc1Cl)N/N=C/c1ccc[nH]1	Non-toxic
O=C(COc1ccc(Cl)cc1Cl)N/N=C/c1ccc[nH]1	Non-toxic
Cc1cc(C)c(OCC(=O)N/N=C/c2ccc[nH]2)c(C)c1	Non-toxic
O=C(CCc1ccc2c(c1)OCO2)N/N=C/c1ccc[nH]1	Non-toxic
COc1ccccc1OCC(=O)N/N=C/c1ccc[nH]1	Non-toxic
Cn1cccc1/C=N/NC(=O)COc1ccc(Cl)cc1Cl	Non-toxic

system: not listed separately; experiment: Stability in phosphate buffered saline with 0.1% DMSO assessed as compound remaining measured after 48 hrs by UPLC-MS method; type: physicochemical; settings: read-out: Stability

remaining at 48 h [%]	SMILES
76	O=C(COc1c(Cl)cc(Cl)cc1Cl)N/N=C/c1ccc[nH]1

system: not listed separately; experiment: Solubility in phosphate buffered saline at 100 microM with 1% DMSO at pH 7.4 at 23 degC by UPLC-MS method; type: physicochemical; settings: not given

solubility kinetic at 100 µM [µM]	SMILES
6.3 (≈ 2.18 µg/mL)	O=C(COc1c(Cl)cc(Cl)cc1Cl)N/N=C/c1ccc[nH]1

system: not listed separately; experiment: Protein binding in human plasma incubated for 48 hrs by UPLC-MS method; type: ADME, cell-free; settings: read-out: PPB (converted)

fraction unbound at 48 h	SMILES
0.012	O=C(COc1c(Cl)cc(Cl)cc1Cl)N/N=C/c1ccc[nH]1

system: not listed separately; experiment: Stability in human plasma assessed as compound remaining measured after 5 hrs by UPLC-MS method; type: ADME, cell-free; settings: read-out: Stability

remaining at 5 h [%]	SMILES
49	O=C(COc1c(Cl)cc(Cl)cc1Cl)N/N=C/c1ccc[nH]1

system: not listed separately; experiment: Stability in presence of glutathione containing medium assessed as compound remaining measured after 48 hrs by UPLC-MS method; type: physicochemical; settings: read-out: Stability

remaining at 48 h [%]	SMILES
85	O=C(COc1c(Cl)cc(Cl)cc1Cl)N/N=C/c1ccc[nH]1

— ChEMBL document CHEMBL2086332, “Identification of a selective small molecule inhibitor of breast cancer stem cells” (Bioorg Med Chem Lett, 2012)
